Source: ChEMBL document CHEMBL1140586, “Design and synthesis of a functionally selective D3 agonist and its in vivo delivery via the intranasal route” (Bioorg Med Chem Lett, 2007)

How the values were obtained:
D(2) dopamine receptor = D(2) dopamine receptor (Homo sapiens, UniProt P14416); assay: Agonist activity at human recombinant dopamine D2 receptor expressed in rat pituitary cells assessed as inhibition of forskolin-stimulated cAMP accumulation; assay type: functional, cell-based, Pituitary gland cell
D(3) dopamine receptor = D(3) dopamine receptor (Homo sapiens, UniProt P35462); assay: Agonist activity at human recombinant dopamine D3 receptor expressed in CHO cells assessed as inhibition of forskolin-stimulated cAMP accumulation; assay type: functional, cell-based
[1] = Clearance in rat; assay type: ADME, organism-based; settings: in vivo
[2] = Clearance in human; assay type: ADME, organism-based; settings: in vivo

Chain of D(3) dopamine receptor (P35462 whole entry): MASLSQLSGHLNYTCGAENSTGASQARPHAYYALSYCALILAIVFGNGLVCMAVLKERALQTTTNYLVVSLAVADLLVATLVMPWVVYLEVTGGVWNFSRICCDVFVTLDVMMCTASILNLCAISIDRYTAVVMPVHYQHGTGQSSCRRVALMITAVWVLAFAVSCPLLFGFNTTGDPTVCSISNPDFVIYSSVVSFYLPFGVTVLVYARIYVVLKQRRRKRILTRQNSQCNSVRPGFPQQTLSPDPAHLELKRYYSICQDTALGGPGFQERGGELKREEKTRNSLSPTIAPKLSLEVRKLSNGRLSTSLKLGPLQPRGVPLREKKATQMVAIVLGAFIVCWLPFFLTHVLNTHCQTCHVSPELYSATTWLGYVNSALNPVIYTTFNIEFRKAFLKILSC
Chain of D(2) dopamine receptor (P14416 whole entry): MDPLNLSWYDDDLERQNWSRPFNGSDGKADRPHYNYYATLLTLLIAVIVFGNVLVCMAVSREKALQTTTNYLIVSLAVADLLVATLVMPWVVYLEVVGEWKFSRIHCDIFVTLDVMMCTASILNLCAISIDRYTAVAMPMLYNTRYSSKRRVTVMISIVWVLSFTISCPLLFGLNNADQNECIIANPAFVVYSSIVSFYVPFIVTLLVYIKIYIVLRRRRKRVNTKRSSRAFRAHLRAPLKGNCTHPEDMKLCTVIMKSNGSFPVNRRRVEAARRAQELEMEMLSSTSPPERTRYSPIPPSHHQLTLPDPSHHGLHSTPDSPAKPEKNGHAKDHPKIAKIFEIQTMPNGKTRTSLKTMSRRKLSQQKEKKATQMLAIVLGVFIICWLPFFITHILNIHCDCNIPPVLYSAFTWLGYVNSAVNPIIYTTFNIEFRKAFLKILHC

| Structure (SMILES) | EC50 (D(2) dopamine receptor) [µM] | EC50 (D(3) dopamine receptor) [nM] | further results |
| --- | --- | --- | --- |
| CCCN1CCOC(c2cccc(O)c2)C1 (configuration not stated) | > 10 | 27 | – |
| CCCN1CCOC(c2ccc(Cl)c(O)c2)C1 (configuration not stated) | – | > 688 | – |
| Oc1cccc(C2CNCCO2)c1 (configuration not stated) | 7.2 | 864 | – |
| CCCN1CCOC(c2cccc(CO)c2)C1 (configuration not stated) | – | > 1000 | – |
| CCCN1CCOC(c2cc(O)cc(C(N)=O)c2)C1 (configuration not stated) | – | > 10000 | – |
| CCCN1CCOC(c2cccc(C(=O)OC)c2)C1 (configuration not stated) | – | > 1000 | – |
| CCCN1CCOC(c2ccc(O)c(NS(C)(=O)=O)c2)C1 (configuration not stated) | – | > 1000 | – |
| CCCN(CCC)CCc1cccc2c1CC(=O)N2 [ROPINIROLE] | 0.083 | – | – |
| CCCN1CCOC(c2cccc(-c3ncc[nH]3)c2)C1 (configuration not stated) | > 10 | > 1000 | – |
| CCCN1CCOC(c2cccc(S(C)(=O)=O)c2)C1 (configuration not stated) | > 10 | > 1000 | – |
| CCCN1CCO[C@H](c2cc(O)cc(O)c2)C1 | > 10 | 32 | clearance [1]: 188 mL/min/kg; Emax (D(3) dopamine receptor): > 90% |
| CCCN1CCO[C@@H](c2ccc(F)c(O)c2)C1 | > 10 | > 10000 | – |
| CCCN1CCO[C@@H](c2cccc(O)c2)C1 | > 10 | > 5000 | – |
| CCCN1CCOC(c2cccc(N)c2)C1 (configuration not stated) | > 1 | > 1000 | – |
| CCCN1CCOC(c2ccccc2)C1 (configuration not stated) | > 10 | > 1000 | – |
| C=CCN1CCOC(c2cccc(O)c2)C1 (configuration not stated) | > 100 | 1310 | – |
| CCCN1CCOC(c2ccc(F)c(O)c2)C1 (configuration not stated) | – | 35 | – |
| CCCN1CCOC(c2cccc(Cl)c2)C1 (configuration not stated) | > 10 | > 2800 | – |
| CCCN1CCOC(c2cccc(C(N)=O)c2)C1 (configuration not stated) | – | > 1000 | – |
| CCCN1CCOC(c2cccc(O)c2C)C1 (configuration not stated) | – | > 1000 | – |
| CCCN1CCC[C@@H]2Cc3nc(N)ncc3C[C@H]21 [QUINELORANE] | 0.002 | – | – |
| CCCN1CCOC(c2ccc(O)c(C#N)c2)C1 (configuration not stated) | – | > 1000 | – |
| CNC[C@H](O)c1cccc(O)c1 [PHENYLEPHRINE] | – | – | clearance [2]: 30 mL/min/kg |
| CCCN1CCOC(c2ccc(O)c(C(N)=O)c2)C1 (configuration not stated) | – | 427 | – |
